US20260176320A1, “MODULATORS OF G-PROTEIN COUPLED RECEPTORS” (priority 2018, published 2026)
Where two headings read alike, the source gives them in different places. Numbered stars: 1 amine (or outer) side, 2 acyl side, 3 side chain; on linkers, the order of the positions; unused ones are H or OH. Square brackets hold non-standard residues; d marks the D form. Side chains are listed from the residue outwards. Peptide text beside a SMILES is read from it. * marks the point of attachment. γGlu = O=C(O)[C@H](CCC(=O)[*:2])N[*:1]; Palmitoyl = CCCCCCCCCCCCCCCC(=O)*; X6 = O=C(CSCC(=O)*)NCCN1CCCCC1=O; Aib = CC(C)(N)C(=O)O

What was measured:
Format in all cases: cell-based
GIP-R = target: T1, GIP-R (Homo sapiens, UniProt P48546); experiment: HitHunter cAMP assay (GIP-R); conditions: cAMP; for Emax: read-out: (Emax) GIP-R
T1 sequence (P48546 22-466): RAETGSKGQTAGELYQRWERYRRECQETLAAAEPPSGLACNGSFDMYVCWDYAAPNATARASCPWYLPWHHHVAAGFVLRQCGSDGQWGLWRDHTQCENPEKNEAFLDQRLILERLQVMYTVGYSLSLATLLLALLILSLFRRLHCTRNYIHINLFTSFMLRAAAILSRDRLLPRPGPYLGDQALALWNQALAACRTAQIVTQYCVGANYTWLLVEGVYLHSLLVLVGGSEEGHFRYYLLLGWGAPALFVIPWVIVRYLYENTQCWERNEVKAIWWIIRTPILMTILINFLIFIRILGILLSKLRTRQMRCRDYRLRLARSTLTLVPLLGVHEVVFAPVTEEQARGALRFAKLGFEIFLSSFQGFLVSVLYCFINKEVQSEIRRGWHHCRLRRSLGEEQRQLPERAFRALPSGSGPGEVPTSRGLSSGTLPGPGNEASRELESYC
In short: (§1)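 cAMP accumulation read by luminescent HitHunter immunocompetition after 30 min room-temperature agonist stimulation. Agonists tested as 22-point twofold dilutions, in duplicate, on 10,000 cells/well in HBSS containing 625 μM IBMX, 10 mM HEPES and 0.2% BSA.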

GLP-1R [1] = target: T2, GLP-1R (Homo sapiens, UniProt P43220); experiment: HitHunter cAMP assay (GLP-1R); conditions: cAMP; for Emax: read-out: (Emax) GLP-1R
In short: as §1

GLP-1R [2] = target: T2, GLP-1R; experiment: PathHunter β-arrestin assay
In short: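 β-Arrestin recruitment measured by PathHunter enzyme-fragment luminescence, read after 3 h dark incubation at room temperature with detection solution. Beforehand, agonist in a 22-point 2-fold series was applied in duplicate for 90 min at 37 °C to 5,000 cells/well in BSA-containing (0.2%) medium.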

[3] = Table 3A, read-out: EC50 GLP-1R/nM
[4] = PathHunter β-arrestin assay, read-out: β-arrestin activity EC50

T2 sequence (P43220 24-463): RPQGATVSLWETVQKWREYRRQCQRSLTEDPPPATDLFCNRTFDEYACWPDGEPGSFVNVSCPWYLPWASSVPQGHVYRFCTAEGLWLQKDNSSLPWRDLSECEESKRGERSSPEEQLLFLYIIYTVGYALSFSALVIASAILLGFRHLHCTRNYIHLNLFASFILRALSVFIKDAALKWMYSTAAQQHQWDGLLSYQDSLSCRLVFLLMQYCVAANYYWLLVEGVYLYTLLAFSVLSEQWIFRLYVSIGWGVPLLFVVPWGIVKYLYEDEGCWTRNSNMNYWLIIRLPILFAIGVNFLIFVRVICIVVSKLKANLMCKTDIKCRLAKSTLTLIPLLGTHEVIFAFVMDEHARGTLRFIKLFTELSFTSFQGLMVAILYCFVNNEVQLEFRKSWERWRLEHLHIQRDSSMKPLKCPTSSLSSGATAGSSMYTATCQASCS

## CC[C@H](C)[C@H](NC(=O)[C@H](CO)NC(=O)[C@H](Cc1ccc(O)cc1)NC(=O)[C@H](CC(=O)O)NC(=O)[C@H](CO)NC(=O)[C@@H](NC(=O)[C@H](Cc1ccccc1)NC(=O)[C@@H](NC(=O)CNC(=O)[C@H](CCC(=O)O)NC(=O)CCCCC(=O)NCCN1C(=O)CSC1=O)[C@@H](C)O)[C@@H](C)O)C(=O)N[C@@H](Cc1ccc(O)cc1)C(=O)N[C@@H](CC(C)C)C(=O)N[C@@H](CC(=O)O)C(=O)N[C@@H](CCCCN)C(=O)N[C@@H](CCC(N)=O)C(=O)N[C@@H](C)C(=O)N[C@@H](C)C(=O)NC(C)(C)C(=O)N[C@@H](CCC(=O)O)C(=O)N[C@@H](Cc1ccccc1)C(=O)N[C@H](C(=O)N[C@@H](CC(N)=O)C(=O)N[C@@H](Cc1c[nH]c2ccccc12)C(=O)N[C@@H](CC(C)C)C(=O)N[C@@H](CC(C)C)C(=O)N[C@@H](C)C(=O)NCC(=O)NCC(=O)N1CCC[C@H]1C(=O)N[C@@H](CO)C(=O)N[C@@H](CO)C(=O)NCC(=O)N[C@@H](C)C(=O)N1CCC[C@H]1C(=O)N1CCC[C@H]1C(=O)N1CCC[C@H]1C(=O)N[C@@H](CO)C(=O)N[C@@H](CCCCN)C(N)=O)C(C)C [Compound 191]
GIP-R; Table 3
  Emax: 68%
GIP-R; Table 3, read-out: EC50 GIP-R/nM
  EC50: 10 to 100 nM
GIP-R; Table 3A
  Emax: 68%
GIP-R; Table 3A, read-out: EC50 GIP-R/nM
  EC50: 10 to 100 nM
GLP-1R [1]; Table 3
  Emax: 97%
GLP-1R [1]; Table 3, read-out: EC50 GLP-1R/nM
  EC50: 1 to 10 nM
GLP-1R [1]; Table 3A
  Emax: 97%
GLP-1R [1]; [3]
  EC50: 1 to 10 nM
GLP-1R [2]; [4]
  EC50: > 1000 nM

## CCCCCCCCCCCCCCCC(=O)N[C@@H](CCC(=O)NCCCC[C@H](NC(=O)[C@H](CO)NC(=O)[C@@H]1CCCN1C(=O)[C@@H]1CCCN1C(=O)[C@@H]1CCCN1C(=O)[C@H](C)NC(=O)CNC(=O)[C@H](CO)NC(=O)[C@H](CO)NC(=O)[C@@H]1CCCN1C(=O)CNC(=O)CNC(=O)[C@H](C)NC(=O)[C@H](CC(C)C)NC(=O)[C@H](CC(C)C)NC(=O)[C@H](Cc1c[nH]c2ccccc12)NC(=O)[C@H](CC(N)=O)NC(=O)[C@@H](NC(=O)[C@H](Cc1ccccc1)NC(=O)[C@H](CCC(=O)O)NC(=O)C(C)(C)NC(=O)[C@H](C)NC(=O)[C@H](C)NC(=O)[C@H](CCC(N)=O)NC(=O)[C@H](CCCCN)NC(=O)[C@H](CC(=O)O)NC(=O)[C@H](CC(C)C)NC(=O)[C@H](Cc1ccc(O)cc1)NC(=O)[C@@H](NC(=O)[C@H](CO)NC(=O)[C@H](Cc1ccc(O)cc1)NC(=O)[C@H](CC(=O)O)NC(=O)[C@H](CO)NC(=O)[C@@H](NC(=O)[C@H](Cc1ccccc1)NC(=O)[C@@H](NC(=O)CNC(=O)[C@@H](CC(=O)O)NC(=O)CSCC(=O)NCCN1CCCCC1=O)[C@@H](C)O)[C@@H](C)O)[C@@H](C)CC)C(C)C)C(N)=O)C(=O)O [Compound 218] (X6-[dD]GTFTSDYSIYLDKQAA[Aib]EFVNWLLAGGPSSGAPPPSK([γGlu-Palmitoyl])-NH2)
GIP-R; Table 3A
  Emax: 19 to 23%
GLP-1R [1]; Table 3A
  Emax: 96%
GLP-1R [1]; [3]
  EC50: 0.1 to 1 nM
GLP-1R [2]; [4]
  EC50: > 1000 nM

## CCCCCCCCCCCCCCCC(=O)N[C@@H](CCC(=O)NCCCC[C@H](NC(=O)[C@H](CO)NC(=O)[C@@H]1CCCN1C(=O)[C@@H]1CCCN1C(=O)[C@@H]1CCCN1C(=O)[C@H](C)NC(=O)CNC(=O)[C@H](CO)NC(=O)[C@H](CO)NC(=O)[C@@H]1CCCN1C(=O)CNC(=O)CNC(=O)[C@H](C)NC(=O)[C@H](CC(C)C)NC(=O)[C@H](CC(C)C)NC(=O)[C@H](Cc1c[nH]c2ccccc12)NC(=O)[C@H](CC(N)=O)NC(=O)[C@@H](NC(=O)[C@H](Cc1ccccc1)NC(=O)[C@H](CCC(=O)O)NC(=O)C(C)(C)NC(=O)[C@H](C)NC(=O)[C@H](C)NC(=O)[C@H](CCC(N)=O)NC(=O)[C@H](CCCCN)NC(=O)[C@H](CC(=O)O)NC(=O)[C@H](CC(C)C)NC(=O)[C@H](Cc1ccc(O)cc1)NC(=O)[C@@H](NC(=O)[C@H](CO)NC(=O)[C@H](Cc1ccc(O)cc1)NC(=O)[C@H](CC(=O)O)NC(=O)[C@H](CO)NC(=O)[C@@H](NC(=O)[C@H](Cc1ccccc1)NC(=O)[C@@H](NC(=O)CNC(=O)[C@H](CCC(=O)O)NC(=O)CSCC(=O)NCCN1C[C@@H](OC)CC1=O)[C@@H](C)O)[C@@H](C)O)[C@@H](C)CC)C(C)C)C(N)=O)C(=O)O [Compound 22]
GIP-R; EC50 GIP-R/nM, Table 3
  EC50: 0.1 to 1 nM
GIP-R; EC50 GIP-R/nM, Table 3A
  EC50: 0.1 to 1 nM
GIP-R; Table 3
  Emax: 46%
GIP-R; Table 3A
  Emax: 46%
GLP-1R [1]; EC50 GLP-1R/nM, Table 3
  EC50: 0.1 to 1 nM
GLP-1R [1]; EC50 GLP-1R/nM, Table 3A
  EC50: 0.1 to 1 nM
GLP-1R [1]; Table 3
  Emax: 90%
GLP-1R [1]; Table 3A
  Emax: 90%
GLP-1R [2]
  EC50: > 1000 nM

## CCCCCCCCCCCCCCCC(=O)N[C@@H](CCC(=O)NCCCC[C@H](NC(=O)[C@H](CO)NC(=O)[C@@H]1CCCN1C(=O)[C@@H]1CCCN1C(=O)[C@@H]1CCCN1C(=O)[C@H](C)NC(=O)CNC(=O)[C@H](CO)NC(=O)[C@H](CO)NC(=O)[C@@H]1CCCN1C(=O)CNC(=O)CNC(=O)[C@H](C)NC(=O)[C@H](CC(C)C)NC(=O)[C@H](CC(C)C)NC(=O)[C@H](Cc1c[nH]c2ccccc12)NC(=O)[C@H](CC(N)=O)NC(=O)[C@@H](NC(=O)[C@H](Cc1ccccc1)NC(=O)[C@H](CCC(=O)O)NC(=O)C(C)(C)NC(=O)[C@H](C)NC(=O)[C@H](C)NC(=O)[C@H](CCC(N)=O)NC(=O)[C@H](CCCCN)NC(=O)[C@H](CC(=O)O)NC(=O)[C@H](CC(C)C)NC(=O)[C@H](Cc1ccc(O)cc1)NC(=O)[C@@H](NC(=O)[C@H](CO)NC(=O)[C@H](Cc1ccc(O)cc1)NC(=O)[C@H](CC(=O)O)NC(=O)[C@H](CO)NC(=O)[C@@H](NC(=O)[C@H](Cc1ccccc1)NC(=O)[C@@H](NC(=O)CNC(=O)[C@H](CCC(=O)O)NC(=O)CSCC(=O)NCCN1CCCN(C)C1=O)[C@@H](C)O)[C@@H](C)O)[C@@H](C)CC)C(C)C)C(N)=O)C(=O)O [Compound 23]
GIP-R; EC50 GIP-R/nM, Table 3
  EC50: 1 to 10 nM
GIP-R; EC50 GIP-R/nM, Table 3A
  EC50: 1 to 10 nM
GIP-R; Table 3
  Emax: 37%
GIP-R; Table 3A
  Emax: 37%
GLP-1R [1]; EC50 GLP-1R/nM, Table 3
  EC50: 1 to 10 nM
GLP-1R [1]; EC50 GLP-1R/nM, Table 3A
  EC50: 1 to 10 nM
GLP-1R [1]; Table 3
  Emax: 83%
GLP-1R [1]; Table 3A
  Emax: 83%
GLP-1R [2]
  EC50: > 1000 nM

## CC[C@H](C)[C@H](NC(=O)[C@H](CO)NC(=O)[C@H](Cc1ccc(O)cc1)NC(=O)[C@H](CC(=O)O)NC(=O)[C@H](CO)NC(=O)[C@@H](NC(=O)[C@H](Cc1ccccc1)NC(=O)[C@@H](NC(=O)CNC(=O)[C@H](CCC(=O)O)NC(=O)CSCC(=O)NCCn1c(C)cc(C)cc1=O)[C@@H](C)O)[C@@H](C)O)C(=O)N[C@@H](Cc1ccc(O)cc1)C(=O)N[C@@H](CC(C)C)C(=O)N[C@@H](CC(=O)O)C(=O)N[C@@H](CCCCN)C(=O)N[C@@H](CCC(N)=O)C(=O)N[C@@H](C)C(=O)N[C@@H](C)C(=O)NC(C)(C)C(=O)N[C@@H](CCC(=O)O)C(=O)N[C@@H](Cc1ccccc1)C(=O)N[C@H](C(=O)N[C@@H](CC(N)=O)C(=O)N[C@@H](Cc1c[nH]c2ccccc12)C(=O)N[C@@H](CC(C)C)C(=O)N[C@@H](CC(C)C)C(=O)N[C@@H](C)C(=O)NCC(=O)NCC(=O)N1CCC[C@H]1C(=O)N[C@@H](CO)C(=O)N[C@@H](CO)C(=O)NCC(=O)N[C@@H](C)C(=O)N1CCC[C@H]1C(=O)N1CCC[C@H]1C(=O)N1CCC[C@H]1C(=O)N[C@@H](CO)C(=O)N[C@@H](CCCCN)C(N)=O)C(C)C [Compound 111]
GIP-R; EC50 GIP-R/nM, Table 3
  EC50: 10 to 100 nM
GIP-R; EC50 GIP-R/nM, Table 3A
  EC50: 100 to 1000 nM
GIP-R; read-out: (Emax) GIP-R at 1 μM, Table 3
  Emax at 1 µM: 12%
GIP-R; read-out: (Emax) GIP-R at 1 μM, Table 3A
  Emax at 1 µM: 12%
GLP-1R [1]; EC50 GLP-1R/nM, Table 3
  EC50: 10 to 100 nM
GLP-1R [1]; EC50 GLP-1R/nM, Table 3A
  EC50: 10 to 100 nM
GLP-1R [1]; Table 3
  Emax: 94%
GLP-1R [1]; Table 3A
  Emax: 94%
GLP-1R [2]
  EC50: > 1000 nM
